ChEMBL document CHEMBL1142450, “3-(Imidazolyl methyl)-3-aza-bicyclo[3.1.0]hexan-6-yl)methyl ethers: a novel series of mGluR2 positive allosteric modulators” (Bioorg Med Chem Lett, 2008)

Legend:
Format in all cases: ADME, organism-based
[1] = Oral bioavailability in Sprague-Dawley rat at 5 mg/kg; settings: in vivo
[2] = Fraction absorbed in Sprague-Dawley rat at 5 mg/kg, po; parameters: dose 5 mg/kg, route oral; settings: in vivo, read-out: Fabs
[3] = Ratio of drug level in brain to plasma in Sprague-Dawley rat at 10 mg/kg, sc; parameters: dose 10 mg/kg, route subcutaneous; settings: brain and plasma, read-out: BPR

Compound | bioavailability [1] [%] | Fa [2] [%] | Kp [3]
Cn1c(CN2C[C@@H]3C(COc4ccc(Cl)cn4)[C@@H]3C2)nc2ccccc21 (stereo partly drawn) | 20 | 72 | 
Cn1c(CN2C[C@@H]3C(COc4cccc(Cl)c4)[C@@H]3C2)nc2ncccc21 (stereo partly drawn) | 79 | 84 | 
Cn1c(CN2C[C@@H]3C(COc4ccccc4)[C@@H]3C2)nc2ccccc21 (stereo partly drawn) | < 2 | 5 | 2
Cn1c(CN2C[C@@H]3C(COc4ccc(C(F)(F)F)cn4)[C@@H]3C2)nc2ccccc21 (stereo partly drawn) | 27 |  | 
